# Data: PubChem BioAssay (NCI)
# “And” between values parts separate entries of the source, which are not always exact repeats. Equal values may be shown once.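 1) Cells in 96-well plates. 2) Compound, 48 h, 5 concentrations. 3) Linear interpolation between surrounding doses. 4) Unreached endpoint = highest concentration. GI50 marks 50% less growth. TGI marks complete inhibition of growth.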
# How the values were obtained:
# Assay in all cases: DTP human tumour cell line panel, 48 h
# HOP-62 NSCLC = system: HOP-62 NSCLC
# UO-31 renal = system: UO-31 renal
# 786-0 renal = system: 786-0 renal
# NCI-H522 lung = system: NCI-H522 lung
# UACC-257 melanoma = system: UACC-257 melanoma
# UACC-62 melanoma = system: UACC-62 melanoma
# HCC-2998 colon = system: HCC-2998 colon
# MOLT-4 leukemia = system: MOLT-4 leukemia
# HT29 colon = system: HT29 colon
# MALME-3M melanoma = system: MALME-3M melanoma
Compound,TGI (HOP-62 NSCLC),TGI (UO-31 renal),TGI (786-0 renal),TGI (NCI-H522 lung),TGI (UACC-257 melanoma),TGI (UACC-62 melanoma),TGI (HCC-2998 colon),TGI (MOLT-4 leukemia) [µM],TGI (HT29 colon),GI50 (MALME-3M melanoma),TGI (MALME-3M melanoma),GI50 (UO-31 renal),GI50 (786-0 renal),GI50 (UACC-257 melanoma) [µM],GI50 (UACC-62 melanoma),GI50 (HCC-2998 colon),GI50 (MOLT-4 leukemia),GI50 (HOP-62 NSCLC),GI50 (NCI-H522 lung),GI50 (HT29 colon)
O=C1CCNC/C1=C\c1ccccc1,79 µM,35.5 µM,29 µM,23.4 µM,58.8 µM,34.3 µM,42.8 µM,> 100,32.9 µM,,,,,,,,,,,
CC(C)(C)n1cc(-c2ccnc(NCCCNS(=O)(=O)c3cccc4ccccc34)c2)c(-c2cccc(O)c2)n1,,7.97 µM,5.12 µM,,4.39 µM,3.28 µM,3.37 µM,5.5,,1.51 µM,3.18 µM,2.26 µM,2090 nM,2.07,1.67 µM,1.87 µM,2 µM,,,
NP1(Oc2ccc(F)cc2)=NP(N)(Oc2ccc(F)cc2)=NP(Oc2ccc(F)cc2)(Oc2ccc(F)cc2)=N1 (stereo not given),21.5 µM,14.2 µM,22.9 µM,,24.7 µM,,8.4 µM,10.5,17.2 µM,,18.7 µM,,,,,,,,,
O=C(CC1(O)C(=O)Nc2ccccc21)c1cccc(O)c1 (stereo not given),> 100 µM,> 100 µM,> 100 µM,> 100 µM,> 100 µM,> 100 µM,,> 100,> 100 µM,,> 100 µM,,,,,,,,,
COc1cc([C@H]2OC[C@@H]3C(c4cc(OC)c5c(c4)OCO5)OC[C@H]23)cc(OC)c1OC (stereo not given in full),> 100 µM,> 100 µM,> 100 µM,> 100 µM,> 100 µM,> 100 µM,> 100 µM,> 100,> 100 µM,,,,,,,,,,,
CCn1c(=O)nc2n(-c3ccc(SC)cc3)c3ccccc3nc-2c1=O,> 100 µM,> 100 µM,> 100 µM,> 100 µM,> 100 µM,> 100 µM,> 100 µM,> 100,,,> 100 µM,,,,,,,,,
COC(=O)[C@]12CC[C@@H](C)[C@H](C)[C@@H]1C1=CC[C@@H]3[C@@]4(C)C[C@@H](OC(C)=O)[C@H](OC(C)=O)[C@@](C)(COC(C)=O)[C@@H]4[C@H](O)C[C@@]3(C)[C@]1(C)CC2,> 100 µM,,> 100 µM,89 µM,8.21 µM,,> 100 µM,11.5,> 100 µM,3.82 µM,74.8 µM,,1800 nM,2.43,,2.81 µM,0.901 µM,3.25 µM,1.92 µM,0.659 µM
C=C(C)[C@@H]1CC[C@]2(C(=O)O)CC[C@]3(C)[C@H](CC[C@@H]4[C@@]5(C)CCC(N)C(C)(C)[C@@H]5CC[C@]43C)[C@@H]12 (stereo not given in full),7 µM,,3.07 µM,,,3.55 µM,,,,1.56 µM,3.22 µM,,1590 nM,,1.92 µM,,,2.49 µM,,
COc1cc(C(=O)/C=C/c2c[nH]c3ccccc23)cc(OC)c1OC,29 µM,11.4 µM,> 33.9 µM,0.0391 µM,,15.7 µM,7.59 µM,15.6,0.343 µM,0.0381 µM,18 µM,0.0396 µM,< 22.3 nM,,< 0.01 µM,0.0959 µM,0.0473 µM,0.0212 µM,< 0.0107 µM,< 0.0146 µM
CC1OC(O[C@@H]2C=C3CC[C@@H]4[C@H](CC[C@]5(C)[C@@H](c6ccc(=O)oc6)CC[C@]45O)[C@@]3(C)CC2)C(O)C(O)C1O (stereo not given in full),,0.00205 µM,,,0.0197 µM and 0.04 µM,0.003 µM,0.003 µM,0.00127,,,0.00238 µM and 0.00139 µM,,0.0706 nM,,0.00216 µM,0.00159 µM,,,,
COc1cc2c3c(c4cc(OC)c(OC)cc4c2cc1OC)CN1CCC[C@H]1C3,2.85 µM,1.66 µM and 1 µM,> 10 µM and 2.46 µM,1.01 µM and 0.54 µM,0.338 µM and 0.937 µM,,0.3 µM and 0.656 µM,> 34.9,1.14 µM,,,,41.7 nM and 10.3 nM,,,0.0356 µM and < 0.01 µM,0.0382 µM and < 0.01 µM,0.0409 µM and < 0.0147 µM,,0.034 µM and < 0.01 µM
CO[C@H]1C[C@H](O[C@H]2CC[C@@]3(C)[C@H](CC[C@@H]4[C@@H]3CC[C@]3(C)[C@@H](C5=CC(=O)OC5)CC[C@]43O)C2)O[C@H](C)[C@H]1O,0.0202 µM,0.0217 µM,< 0.0129 µM,0.0197 µM,0.215 µM,0.031 µM,0.118 µM,,0.0552 µM,,0.0113 µM,,,,,,,,,
Cc1ccccc1NC(=O)C(=O)C(C(=O)c1ccccc1F)C1OC(=O)c2ccccc21 (stereo not given),44.4 µM,49.4 µM,41.6 µM,19.1 µM,> 100 µM,,24.8 µM,52.4,> 100 µM,,95.1 µM,,,,,,,,,
COc1ccc(/C=C\c2cc(OC)c(OC)c(OC)c2)cc1NC(=O)/C=C/c1cc(OC)c(OC)c(OC)c1,> 100 µM,> 100 µM,> 100 µM,> 100 µM,> 100 µM,> 100 µM,> 100 µM,> 100,> 100 µM,,,2.64 µM,5430 nM,30.8,2.8 µM,3.73 µM,8.52 µM,4.62 µM,2.51 µM,3.55 µM
ClC/C=C/CSc1ncnc2nc[nH]c12,> 100 µM,> 100 µM,> 100 µM,,> 100 µM,> 100 µM,> 100 µM,> 100,> 100 µM,> 100 µM,> 100 µM,> 100 µM,> 100000 nM,> 100,> 100 µM,> 100 µM,> 100 µM,> 100 µM,,> 100 µM
N#Cc1sc2nc3c(c(-c4ccccc4)c2c1N)CCCC3,,> 100 µM,> 100 µM,> 100 µM,> 100 µM,> 100 µM,> 100 µM,> 100,> 100 µM,,> 100 µM,,,,,,,,,
COc1cc2c(cc1O)CCN[C@@]21CS[C@H]2c3c(OC(C)=O)c(C)c4c(c3C(COC1=O)N1C2C2NC(Cc3cc(C)c(OC)c(O)c32)[C@@H]1O)OCO4 (stereo not given in full),< 10 nM and 3.8e-07 µg/mL and 0.0045 µg/mL,21.3 nM and 0.255 µg/mL,30.8 nM and 0.0045 µg/mL,< 10 nM and 0.0045 µg/mL,14.7 nM and 2.1e-07 µg/mL,4.5 ng/mL,,,11.1 µM and 5.58 µg/mL,0.000122 ng/mL,0.000506 ng/mL,10.8 ng/mL,4.5 ng/mL,,4.5 ng/mL,,4.5 ng/mL,,4.5 ng/mL,4.5 ng/mL
